Laboratory results from the OligoGym collection.
“And” between values parts separate entries of the source, which are not always exact repeats. Equal entries are not always repeated. After the bases stand the sugars from the 5' end (letter, count) and the backbone: PS all phosphorothioate, else s phosphorothioate and o phosphodiester by linkage. Methylation of C is not given here. e = 2'-O-(2-methoxyethyl) (MOE); k = constrained ethyl (cEt); d = 2'-deoxy (DNA)

Molecular target: KRAS
Settings: ASO

Sequence: AATGGTGAATATCTTC (sugars k3 d10 k3, PS)
- target mRNA inhibition (A431, 0.037 µM): 58%
- target mRNA inhibition (A431, 2 µM): 50%
- target mRNA inhibition (A431, 5 µM): 97% and 90%
- target mRNA inhibition (NCI-H460, 0.037 µM): 33.3%

Sequence: TGGTGAATATCTTCAA (sugars k3 d10 k3, PS)
- target mRNA inhibition (A431, 2 µM): 9%

Sequence: ATGCTGTGAAACTCTC (sugars kkdddddddddkekek, PS)
- target mRNA inhibition (A431, 2 µM): 16%

Sequence: AGGAGTCTTTATAGTA (sugars k3 d9 k3 e1, PS)
- target mRNA inhibition (A431, 2 µM): 6%

Sequence: GATTGTGCTGAGCTTG (sugars kkdddddddddkdkdk, PS)
- target mRNA inhibition (A431, 0.185 µM): 0%
- target mRNA inhibition (A431, 0.556 µM): 17%
- target mRNA inhibition (A431, 1.667 µM): 48%
- target mRNA inhibition (A431, 2 µM): 57%
- target mRNA inhibition (A431, 5 µM): 58%

Sequence: TCTCCATTAGTAAATA (sugars k3 d10 k3, PS)
- target mRNA inhibition (A431, 2 µM): 13%

Sequence: AGATTGTGCTGAGCTT (sugars kkkdddddddddkeke, PS)
- target mRNA inhibition (A431, 2 µM): 43%

Sequence: ACCATTCAAAGTTCAC (sugars kkkddddddddkdkdk, PS)
- target mRNA inhibition (A431, 2 µM): 12%

Sequence: GTGTGACTCAGTTAAA (sugars kkddddddddkekekk, PS)
- target mRNA inhibition (A431, 2 µM): 38%

Sequence: AAAAAAAAATTAATGT (sugars k3 d10 k3, PS)
- target mRNA inhibition (A431, 2 µM): 16%

Sequence: TCCAGTATTAACACAG (sugars k3 d10 k3, PS)
- target mRNA inhibition (A431, 2 µM): 34%

Sequence: TTTATGCAATGTTAAT (sugars k3 d10 k3, PS)
- target mRNA inhibition (A431, 2 µM): 34%

Sequence: GATGTAGGGCATTTCT (sugars k3 d10 k3, PS)
- target mRNA inhibition (A431, 2 µM): 0%

Sequence: AGCTATTAGGAGTCTT (sugars k3 d10 k3, PS)
- target mRNA inhibition (A431, 2 µM): 35%

Sequence: GTTTATGCAATGTTAA (sugars kdddddddddkekeke, PS)
- target mRNA inhibition (A431, 2 µM): 31%

Sequence: AGGAGTCTTTATAGTA (sugars kkkdddddddddkeke, PS)
- target mRNA inhibition (A431, 2 µM): 31%

Sequence: TGTTTATGCAATGTTA (sugars kkkddddddddkekek, PS)
- target mRNA inhibition (A431, 2 µM): 52%

Sequence: GAGTCTTTATAGTAAT (sugars kkddddddddkekekk, PS)
- target mRNA inhibition (A431, 2 µM): 0%

Sequence: GGAGTCTTTATAGTAA (sugars kkdddddddddkekek, PS)
- target mRNA inhibition (A431, 2 µM): 21%

Sequence: TTAGTGATTAGGTCAA (sugars kkdddddddddkekek, PS)
- target mRNA inhibition (A431, 2 µM): 48%

Sequence: TAGTGATTAGGTCAAA (sugars k3 d9 k3 e1, PS)
- target mRNA inhibition (A431, 2 µM): 43%

Sequence: CTGTGAAACTCTCTAT (sugars k3 d10 k3, PS)
- target mRNA inhibition (A431, 2 µM): 29%

Sequence: TGGTGTAACATAGGTT (sugars k3 d9 k3 e1, PS)
- target mRNA inhibition (A431, 0.185 µM): 21%
- target mRNA inhibition (A431, 0.556 µM): 46%
- target mRNA inhibition (A431, 1.667 µM): 69%
- target mRNA inhibition (A431, 2 µM): 56%
- target mRNA inhibition (A431, 5 µM): 80%

Sequence: ACCAGTGTTAAGAGAA (sugars kkkddddddddkekek, PS)
- target mRNA inhibition (A431, 2 µM): 51%

Sequence: TTCAAAGTTCACATAA (sugars k3 d10 k3, PS)
- target mRNA inhibition (A431, 2 µM): 7%

Sequence: CACTTGTACTAGTATG (sugars k3 d10 k3, PS)
- target mRNA inhibition (A431, 2 µM): 36%

Sequence: CATTCAAAGTTCACAT (sugars kddddddddddkekek, PS)
- target mRNA inhibition (A431, 2 µM): 43%

Sequence: TCTTGATTTGTCAGCA (sugars k3 d10 k3, PS)
- target mRNA inhibition (A431, 0.185 µM): 13% and 0%
- target mRNA inhibition (A431, 0.556 µM): 22% and 21%
- target mRNA inhibition (A431, 1.667 µM): 60% and 47%
- target mRNA inhibition (A431, 2 µM): 62%
- target mRNA inhibition (A431, 5 µM): 75% and 69%

Sequence: CAGTGTGACTCAGTTA (sugars kddddddddddkekek, PS)
- target mRNA inhibition (A431, 2 µM): 32%

Sequence: CCAGTGATACTTTCAC (sugars kdddddddddkekeke, PS)
- target mRNA inhibition (A431, 2 µM): 16%

Sequence: GCATTTCTGATGTGAC (sugars k3 d10 k3, PS)
- target mRNA inhibition (A431, 2 µM): 24%

Sequence: AATAATCCCCATTTCA (sugars k3 d10 k3, PS)
- target mRNA inhibition (A431, 2 µM): 16%

Sequence: AAAAGTGTTTATGCAA (sugars k3 d10 k3, PS)
- target mRNA inhibition (A431, 2 µM): 32%

Sequence: TCCATTTATGTGACTA (sugars k3 d10 k3, PS)
- target mRNA inhibition (A431, 0.185 µM): 29%
- target mRNA inhibition (A431, 0.556 µM): 59%
- target mRNA inhibition (A431, 1.667 µM): 65%
- target mRNA inhibition (A431, 5 µM): 78%

Sequence: CTTCATTGTTTAAAAA (sugars k3 d10 k3, PS)
- target mRNA inhibition (A431, 2 µM): 11%
